# Legend:
# Test in all cases: combination Emax (second highest fraction inhibited in the dose matrix, 72 h); higher = more inhibition; extreme values may be limits of the assay
# TGW (Neuroblastoma) = system: TGW (Neuroblastoma)
# Procedure, shortened: (§1)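 Cell lines in DMEM/F12 or RPMI with 10% FBS were plated in 1536-well plates, held 24 hours at 37°C, 5% CO2, then given two-drug dose matrices for 72 hours (DMSO typically 0.2%). Viability was read by CellTiter-Glo 2.0 luminescence and scaled as inhibition from 0 (vehicle wells) to 1 (blank wells). Combination Emax is the second-highest inhibition in the matrix; Bliss excess is observed combination effect minus expected EA + EB − EA·EB, EA and EB being single-agent effects.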
# EW-24 (Ewing's Sarcoma) = system: EW-24 (Ewing's Sarcoma)
# Procedure, shortened: as §1
# [1] = system: KARPAS-299 (T-Cell Non-Hodgkin's Lymphoma)
# Procedure, shortened: as §1
# YH-13 (Glioblastoma) = system: YH-13 (Glioblastoma)
# Procedure, shortened: as §1
# [2] = system: VA-ES-BJ (Other Solid Carcinomas)
# Procedure, shortened: as §1
# [3] = system: NEC8 (Other Solid Carcinomas)
# Procedure, shortened: as §1
# [4] = system: LU-65 (Non-Small Cell Lung Carcinoma)
# Procedure, shortened: as §1
# PWR-1E (Non-Cancerous) = system: PWR-1E (Non-Cancerous)
# Procedure, shortened: as §1
# [5] = system: PANC-04-03 (Pancreatic Carcinoma)
# Procedure, shortened: as §1
# [6] = system: NUGC-3 (Gastric Carcinoma)
# Procedure, shortened: as §1
# [7] = system: NCI-H1915 (Non-Small Cell Lung Carcinoma)
# Procedure, shortened: as §1
# [8] = system: RF-48 (B-Cell Non-Hodgkin's Lymphoma)
# Procedure, shortened: as §1
# [9] = system: Caov-4 (Ovarian Carcinoma)
# Procedure, shortened: as §1
# [10] = system: KYSE-450 (Esophageal Squamous Cell Carcinoma)
# Procedure, shortened: as §1
# [11] = system: HGC-27 (Gastric Carcinoma)
# Procedure, shortened: as §1
# [12] = system: HSC-4 (Oral Cavity Carcinoma)
# Procedure, shortened: as §1
# ACHN (Kidney Carcinoma) = system: ACHN (Kidney Carcinoma)
# Procedure, shortened: as §1
# [13] = system: HOP-62 (Lung Adenocarcinoma)
# Procedure, shortened: as §1
# [14] = system: MIA-PaCa-2 (Pancreatic Carcinoma)
# Procedure, shortened: as §1
# [15] = system: Ca9-22 (Head and Neck Carcinoma)
# Procedure, shortened: as §1
SMILES,combination Emax (TGW (Neuroblastoma)),combination Emax (EW-24 (Ewing's Sarcoma)),combination Emax [1],combination Emax (YH-13 (Glioblastoma)),combination Emax [2],combination Emax [3],combination Emax [4],combination Emax (PWR-1E (Non-Cancerous)),combination Emax [5],combination Emax [6],combination Emax [7],combination Emax [8],combination Emax [9],combination Emax [10],combination Emax [11],combination Emax [12],combination Emax (ACHN (Kidney Carcinoma)),combination Emax [13],combination Emax [14],combination Emax [15]
"C[C@@H]1COCCN1c1cc(C2([S@](C)(=N)=O)CC2)nc(-c2ccnc3[nH]ccc23)n1 [AZD6738] + O=C(c1cc(Cc2n[nH]c(=O)c3ccccc23)ccc1F)N1CCN(C(=O)C2CC2)CC1 [Olaparib] (first compound max 10 µM, 7x7, partner max 10 µM)",0.731,0.567,0.98,0.611,0.64,0.764,0.751,0.842,0.515,0.778,0.557,0.56,0.969,0.608,0.902,0.691,0.988,0.498,0.708,0.88
"NC1(C(=O)N[C@@H](CCO)c2ccc(Cl)cc2)CCN(c2ncnc3[nH]ccc23)CC1 [Capivasertib] + CC(=O)c1c(C)c2cnc(Nc3ccc(N4CCNCC4)cn3)nc2n(C2CCCC2)c1=O [Palbociclib] (first compound max 10 µM, 7x7, partner max 10 µM)",0.378,0.495,0.479,0.609,0.458,0.187,0.448,0.535,0.261,0.592,0.491,0.42,0.377,0.351,0.874,0.423,0.658,0.572,0.451,0.442
"NC1(C(=O)N[C@@H](CCO)c2ccc(Cl)cc2)CCN(c2ncnc3[nH]ccc23)CC1 [Capivasertib] + CC(C)n1c(=O)n(C)c2cnc3cc(F)c(-c4ccc(OCCCN5CCCCC5)nc4)cc3c21 [AZD1390] (first compound max 10 µM, 7x7, partner max 0.3 µM)",0.172,0.407,0.376,0.541,0.307,0.144,0.401,0.4,0.318,0.339,0.287,0.44,0.245,0.306,0.852,0.337,0.185,0.374,0.188,0.286
"NC1(C(=O)N[C@@H](CCO)c2ccc(Cl)cc2)CCN(c2ncnc3[nH]ccc23)CC1 [Capivasertib] + CCN(CCO)CCCOc1ccc2c(Nc3cc(CC(=O)Nc4cccc(F)c4)[nH]n3)ncnc2c1 [AZD2811] (first compound max 10 µM, 7x7, partner max 1 µM)",0.273,0.659,0.337,0.627,0.49,0.199,0.461,0.713,0.305,0.448,0.334,0.534,0.383,0.414,0.939,0.514,0.355,0.483,0.418,0.445
"NC1(C(=O)N[C@@H](CCO)c2ccc(Cl)cc2)CCN(c2ncnc3[nH]ccc23)CC1 [Capivasertib] + COc1nnc2ccc(N3CCC(c4ccc(OCCN5CCN(C)C(=O)[C@H]5C)cc4)CC3)nn12 [AZD5153] (first compound max 10 µM, 7x7, partner max 1 µM)",0.867,0.756,0.741,0.723,0.487,0.951,0.536,0.861,0.495,0.617,0.588,0.474,0.526,0.324,0.972,0.529,0.672,0.648,0.813,0.799
"NC1(C(=O)N[C@@H](CCO)c2ccc(Cl)cc2)CCN(c2ncnc3[nH]ccc23)CC1 [Capivasertib] + C[C@@H]1COCCN1C2=NC(=NC(=C2)C3(CC3)[S@](=N)(=O)C)C4=C5C=CNC5=NC=C4 [AZD6738] (first compound max 10 µM, 7x7, partner max 10 µM)",0.614,0.786,0.928,0.648,0.729,0.799,0.632,0.947,0.575,0.74,0.531,0.627,0.825,0.452,0.923,0.73,0.856,0.652,0.542,0.872
